How the values were obtained:
[1] = Terminal plasma pharmacokinetic analysis in tumor-bearing mice; assay type: in vivo, mouse
Protocol: (§1) Data was graphed using GraphPad Prism 7.05.
(§2) Tumor volume and body weight assessment performed as described above. After the final dose on day 36, plasma pharmacokinetic analysis was performed as described above. All data analysis was performed as described above.
(§3) Animals were dosed IP daily with vehicle alone, C9 (50 or 100 mg/kg), or C12 (25 or 50 mg/kg). […] Tumor volume and body weight assessment performed as described above. After the final dose on day 46, plasma pharmacokinetic analysis was performed as described above except blood was drawn by retro-orbital bleed method.

OVCAR-3 tumors = experiment: OVCAR-3 Tumor Xenograft Efficacy Study (IP); settings: 25 mg/kg IP once daily for 18 consecutive days
Protocol: Mice were injected with human OVCAR-3 cells (5.0×10^6) subcutaneously in the right flank. Animals with established tumors were randomized into four groups (n=10 per group) with average tumor volume of 130 mm^3. […] Treatment started on day 24 post-tumor implantation and treatment terminal on day 42. Tumor volumes and body weights were recorded twice per week using a digital caliper and analytical lab scale, respectively. […] The percentage of tumor growth inhibition (% TGI) was calculated as % TGI relative to vehicle control: % TGI=100−[(Treated−Initial Volume)/(Control−Initial Volume)×100]. The percentage of tumor regression (% TR) was calculated as % TR compared final tumor volume to the initial tumor volume: % TR=100−[(Final Volume)/(Initial Volume)×100]. Data was graphed using GraphPad Prism 7.05. Statistical analysis was performed on treatment groups for tumor growth and blood counts using repeated measures ANOVA and one-way ANOVA, respectively, followed by Dunnett's multiple comparisons test.

[2] = Tolerability (body weight, blood counts) in tumor-bearing nude mice; assay type: in vivo, mouse; settings: 18 days
Protocol: Female athymic nude mice were injected with 5×10^6 cells in 0.1 mL subcutaneously in the right flank. After tumors were established (average tumor volume of 150 mm^3), animals were randomized into 4 treatment groups (vehicle alone, KIF18A inhibitor at 10, 30, or 100 mg/kg) with 10 animals per group and treated orally once per day (PO, QD) starting on day 25 post-tumor implantation. Tumor measurement was calculated from the length, width and height of tumors measured with a PRO-MAX electronic digital caliper (Japan Micrometer Mfg. Co. LTD). The tumor volume was calculated as [L×W×H] and expressed in mm^3. Tumor volume and animal body weight measurements were determined twice per week (study start day 25, study end day 45). A single mouse was removed from the study (KIF18A inhibitor 30 mg/kg group) due to abdominal distention, a finding likely unrelated to compound.
Data was plotted using GraphPad Prism software (V7.0.4), tumor volume and body weight data are expressed as means plus or minus standard error of the mean and plotted as a function of time. Statistical significance of observed differences between growth curves were calculated using SLACR package (v.1.0.3). Statistical significance for tumor regressions were performed by paired Student's t-Test on the initial and final tumor volumes with significant tumor regression p-values (***p≤0.0001) for all three KIF18A inhibitor treatment groups. KIF18A inhibitor dose 10 mg/kg (81% regression, 5 of 10 tumor-free), 30 mg/kg (98% regression, 8 of 9 tumor-free), and 100 mg/kg (97% regression, 7 of 10 tumor-free).
Female athymic nude mice were injected with 5×10^6 OVCAR-8 cells in 0.1 mL subcutaneously in the right flank. […] Tumor volume and animal body weight measurements were determined twice per week (study start day 25, study end day 47). Tumor measurements, formulas, and regression analysis as described above for FIGS. 5A-5B. Data was plotted using GraphPad Prism software (V7.0.4), tumor volume and body weight data are expressed as means plus or minus standard error of the mean and plotted as a function of time. Statistical significance of observed differences between growth curves were calculated using SLACR package (v.1.0.3).
as §1, §2, §3

OVCAR-8 tumors = experiment: OVCAR-8 Tumor Xenograft Efficacy Study (IP); assay type: in vivo, mouse
Protocol: as §3

[3] = molecular target: T1, mouse KIF18A (residues 1-467) (Mus musculus, UniProt Q91WD7); experiment: KIF18A MT-ATPase motor activity, ADP-Glo luminescence assay (Example 19); assay type: biochemical
T1 construct: mouse KIF18A (residues 1-467, 4 nM); made in house
Protocol: (§4) A trio of KIF18A inhibitors (Compound C9, Compound C11, and Compound C12) were synthesized and tested in vitro for KIF18A inhibitory activity. […] The values represent mean t SEM from three independent experiments. […] As in vivo studies in mice were planned, the mouse KIF18A inhibitory effects of Compound C9 and C12 were assayed.
(§5) KIF18A compounds C9, C11, C12 were 2-fold serially diluted over a 22-point concentration range in DMSO using 384-well plate (Corning). Recombinant truncated kinesin motor proteins (human KIF18A (residues 1-467, 4 nM), mouse KIF18A (residues 1-467, 4 nM)) were expressed and purified. ADP-Glo luminescence assay (Promega) was used to measure the MT-ATPase motor activity. Porcine brain MTs were procured from Cytoskeleton Inc. Compounds were pre-incubated for <30 min in reaction buffer (15 mM Tris, pH 7.5, 10 mM MgCl2, 0.01% Pluronic F-68, 2% DMSO, 1 μM paclitaxel, 30 μg/mL MTs) with motor proteins at concentrations indicated above, 30 μM ATP was added to initiate the enzymatic reaction for 15 min at room temperature (RT). ADP-Glo reagents were added according to manufactures protocol, the luminescence intensity proportional to ADP present was measured using an EnVision plate reader (Perkin Elmer). Raw luminescence signal data was normalized to POC (percentage of positive control) and then Activity (%) was computed [POC=100×(sample signal−negative control signal)+(positive control signal−negative control signal). Activity (%)=POC−100]. The positive control (enzyme+substrate) and negative control (substrate alone) had equivalent concentrations of DMSO. Curve-fitting and IC50 values were determined by 4-parameter non-linear regression equation (variable slope) using GraphPad Prism 7.05 (GraphPad Software).

[4] = molecular target: T2, human KIF18A (residues 1-467) (Homo sapiens, UniProt Q8NI77); experiment: as above; assay type: biochemical
T2 construct: human KIF18A (residues 1-467, 4 nM); made in house
Protocol: as §4, §5

MDA-MB-157 cells = experiment: pH3 and PCM spot EC50 determination; settings: pH3 and PCM spot EC50 values
[5] = test system: human foreskin fibroblast (hFSF) cells; experiment: BrdU incorporation assay in normal cells; assay type: cell-based; settings: 48 hours
Protocol: (§6) The effect KIF18A inhibitor treatment has on proliferation of normal somatic cells (e.g., not neoplastic cells) was tested by assaying proliferation of human bone marrow mononuclear cells (HBMNCs), primary human foreskin fibroblast cells (hFSF) and human mammary epithelial cells via a 5-bromo-2′-deoxyuridine (BrdU) incorporation assay in which BrdU, an analog of the nucleoside thymidine, is used to identify proliferating cells (Payton et. al., Molecular Cancer Therapeutics, 17(12):2575-85 (2018)). Cells were analyzed on BD LSRFortessa flow cytometer using BD FACSDiva software (BD Biosciences), and post-acquisition data analysis was performed using FSC-Express software (De Novo). The percentage of BrdU positive gated events on the stacked DNA content histograms were reported.

[6] = test system: human mammary epithelial cells (HMEC); experiment: BrdU incorporation assay in normal cells; assay type: cell-based; settings: 48 hours
Protocol: as §6

[7] = test system: human bone marrow mononuclear cells (HBMNC); experiment: BrdU cell cycle analysis and live cell count in normal cells; assay type: cell-based; settings: 96 h; ispinesib 0.05 μM, paclitaxel 0.05 μM, palbociclib 1 μM
[8] = test system: human bone marrow mononuclear cells (HBMNC); experiment: as above; assay type: cell-based
Protocol: as §6
To further examine the effects of KIF18A inhibitor treatment on HBMNC, two normal donors were assessed using the BrdU coupled cell cycle assay and cell count assay (96 hours) was. […] In particular, the amount of BrdU-stained proliferating cells treated with Ispinesib, paclitaxel, or a CDK 4/6 inhibitor (palbociclib) was far less than the amount of vehicle control-treated BrdU-stained cells. […] KIF18A inhibitor treatment was also analyzed for impact on live cell count. After 96 hours, live cells were counted by Vi-CELL XR Cell Viability Analyzer (Beckman Coulter).
To investigate whether KIF18A inhibitors could circumvent this normal cell toxicity barrier, we examined the effects of Compounds C9 and C11 on a panel of cycling normal somatic cell types. First, we treated human bone marrow mononuclear cells (HBMNC) from two normal donors with DMSO, Compound C9 and C11 at 1 μM, ispinesib at 0.05 μM, paclitaxel at 0.05 μM, or palbociclib at 1 μM for 48 h (cell cycle) or 96 h (cell growth).
BrdU and cell cycle analysis. Human bone marrow mononuclear cells (HBMNCs) from two normal donors (#37612, #37534) were cultured for 8 days in defined media as previously described (Payton et al 2018). HBMNCs were seeded in 24-well plate at 1.2×10^6 cells per well in duplicate plates. Cells were treated with DMSO, Compound C9 (1 μM), Compound C11 (1 μM), ispinesib (0.05 μM), paclitaxel ([…]), or palbociclib (1 μM). Cells were collected at 48 h (cell cycle) and 96 h (cell growth). The first set of plates were pulsed with BrdU for 2 h and processing for BrdU cell cycle analysis as previously described (Payton et al 2018). Cells were analyzed on BD LSRFortessa flow cytometer running BD FACSDiva software and post-acquisition data analysis was performed using FSC-Express software. Data was reported for the percentage of BrdU and subG1 gated populations. The second set of plates were collected, and cells counted using Vi-CELL XR Cell Viability Analyzer (Beckman Coulter).

[9] = OVCAR-3 study, C9 100 mg/kg, C12 25 mg/kg IP daily

T1 sequence (Q91WD7 1-467): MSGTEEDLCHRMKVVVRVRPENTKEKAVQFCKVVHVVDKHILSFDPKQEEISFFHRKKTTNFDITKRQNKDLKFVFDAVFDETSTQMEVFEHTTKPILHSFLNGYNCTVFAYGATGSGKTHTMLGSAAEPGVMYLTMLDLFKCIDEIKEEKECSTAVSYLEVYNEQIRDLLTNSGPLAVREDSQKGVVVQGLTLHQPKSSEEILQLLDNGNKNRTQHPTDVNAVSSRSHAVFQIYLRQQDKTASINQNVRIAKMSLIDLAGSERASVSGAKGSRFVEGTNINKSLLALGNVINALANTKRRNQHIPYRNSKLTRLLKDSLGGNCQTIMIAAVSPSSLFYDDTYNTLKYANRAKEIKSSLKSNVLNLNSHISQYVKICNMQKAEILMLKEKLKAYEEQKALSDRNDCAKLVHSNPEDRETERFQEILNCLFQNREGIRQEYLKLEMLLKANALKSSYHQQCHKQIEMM
T1 sequence (P02550 whole entry partner, the tested form may be a part): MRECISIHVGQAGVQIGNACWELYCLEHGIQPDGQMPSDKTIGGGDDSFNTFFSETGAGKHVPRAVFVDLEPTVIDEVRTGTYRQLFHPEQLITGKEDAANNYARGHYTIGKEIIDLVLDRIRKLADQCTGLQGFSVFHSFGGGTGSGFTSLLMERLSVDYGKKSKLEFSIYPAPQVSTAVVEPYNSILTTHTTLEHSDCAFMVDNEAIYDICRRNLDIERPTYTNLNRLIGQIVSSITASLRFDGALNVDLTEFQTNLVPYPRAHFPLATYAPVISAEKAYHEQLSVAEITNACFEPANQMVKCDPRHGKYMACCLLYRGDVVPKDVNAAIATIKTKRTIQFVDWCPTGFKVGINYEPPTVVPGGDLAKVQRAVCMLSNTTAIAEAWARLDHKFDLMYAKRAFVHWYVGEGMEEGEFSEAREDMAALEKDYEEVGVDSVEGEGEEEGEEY
T1 sequence (P02554 whole entry partner, the tested form may be a part): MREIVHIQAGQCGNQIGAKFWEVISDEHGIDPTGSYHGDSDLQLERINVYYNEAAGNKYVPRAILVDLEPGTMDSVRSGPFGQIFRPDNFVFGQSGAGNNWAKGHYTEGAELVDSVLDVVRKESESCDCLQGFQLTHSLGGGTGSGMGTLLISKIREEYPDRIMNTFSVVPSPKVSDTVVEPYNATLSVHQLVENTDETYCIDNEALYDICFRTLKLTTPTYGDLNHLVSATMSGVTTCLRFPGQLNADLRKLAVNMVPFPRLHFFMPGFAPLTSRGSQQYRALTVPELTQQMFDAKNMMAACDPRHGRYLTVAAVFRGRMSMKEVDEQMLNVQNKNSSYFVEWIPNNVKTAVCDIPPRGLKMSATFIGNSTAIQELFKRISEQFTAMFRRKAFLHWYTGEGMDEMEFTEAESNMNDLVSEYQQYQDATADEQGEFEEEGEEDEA
T2 sequence (Q8NI77 1-467): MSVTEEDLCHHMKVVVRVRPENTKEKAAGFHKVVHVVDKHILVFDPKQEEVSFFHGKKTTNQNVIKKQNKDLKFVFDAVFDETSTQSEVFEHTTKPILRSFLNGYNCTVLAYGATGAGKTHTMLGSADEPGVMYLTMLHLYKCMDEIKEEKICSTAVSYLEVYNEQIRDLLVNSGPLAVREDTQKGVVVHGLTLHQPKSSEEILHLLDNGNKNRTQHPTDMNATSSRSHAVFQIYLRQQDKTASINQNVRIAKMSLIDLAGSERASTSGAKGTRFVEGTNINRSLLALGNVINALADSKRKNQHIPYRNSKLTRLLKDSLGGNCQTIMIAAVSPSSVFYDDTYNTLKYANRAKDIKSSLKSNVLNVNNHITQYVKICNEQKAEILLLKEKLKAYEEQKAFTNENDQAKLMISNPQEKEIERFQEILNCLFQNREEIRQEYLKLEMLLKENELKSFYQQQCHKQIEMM
T2 sequence (P02550 whole entry partner, the tested form may be a part): as the sequence (P02550 whole entry partner, the tested form may be a part) above
T2 sequence (P02554 whole entry partner, the tested form may be a part): as the sequence (P02554 whole entry partner, the tested form may be a part) above

SMILES | plasma AUC in OVCAR-8 study relative to the other efficacy studies ([1]; at matched doses) [fold] | AUC ([1]; nude, mouse, plasma, OVCAR-3 study, 25 mg/kg IP, after the final dose) [µM·h] | tumor regression (OVCAR-3 tumors) [%] | tolerability (body weight) ([2]; CAL-51 study, C9 100 mg/kg, C12 25 mg/kg IP daily) | monocyte count ([2]; OVCAR-3 study, 25 mg/kg IP daily, p=0.043) | body weight loss or changes in blood counts [2, 9] | tolerability [2, 9] | tolerability (body weight) ([2]; OVCAR-8 study, C9 50 or 100 mg/kg, C12 25 or 50 mg/kg IP daily) | tumor regression (OVCAR-8 tumors; 25 mg/kg IP once daily for 18 consecutive days) [%] | tumor regression (OVCAR-8 tumors; 50 mg/kg IP once daily for 18 consecutive days) [%] | IC50 [3] [nM] | IC50 [4] [nM] | improvement of cell potency relative to a control compound (MDA-MB-157 cells) [fold] | BrdU incorporation relative to DMSO treated cells [5] | BrdU incorporation relative to DMSO treated cells [6] | reduction in cell growth [7] [%] | cell cycle DNA content profiles ([8]; 48 h, C9, C11, palbociclib 1 μM, ispinesib 0.05 μM, paclitaxel) | BrdU incorporation (cell cycle analysis) relative to DMSO/vehicle control ([8]; two normal donors, 48 h, C9, C11, palbociclib 1 μM, ispinesib 0.05 μM, paclitaxel) | BrdU incorporation (cell cycle analysis) relative to DMSO/vehicle control ([8]; two normal donors, 48 h, C9, C11, palbociclib 1 μM, ispinesib 0.05 μM, paclitaxel, listed as ispinesib) | live cell count relative to vehicle control ([8]; two normal donors, 96 hours)
C[C@@H]1CN(c2cccc(NC(=O)c3ccc(NS(=O)(=O)CCO)cc3N3CCC4(CC3)CC4)n2)CCO1 [Compound C12, (R)-4-((2-Hydroxyethyl)sulfonamido)-N-(6-(2-methylmorpholino)pyridin-2-yl)-2-(6-azaspiro[2.5]octan-6-yl)benzamide] | 2.8 | 53 | 46 | well-tolerated | decrease on monocytes | no evidence of body weight loss or changes in blood counts | well-tolerated | well-tolerated | 19 | 75 | 39 | 40 | > 120 |  |  |  |  |  |  | 
Cc1ccc(C(=O)N(CCCN)[C@@H](c2nc3cc(Cl)ccc3c(=O)n2Cc2ccccc2)C(C)C)cc1 [Ispinesib, reference compound] |  |  |  |  |  |  |  |  |  |  |  |  |  | decrease in BrdU incorporation | decrease in BrdU incorporation | ~88 | marked effects on cell cycle DNA content profiles | far less | clearly cytotoxic | lower cell count
